The text below walks through data of PMC9953701 (Biomedicines, 2023).

Where two headings read alike, the source gives them in different places. No end group written: not given here. Bounds are passed on as bounds.

The subject of series [1] is Bacillus subtilis CCUG 163BT. The format is cell-based. As to conditions: B. subtilis; TSB, Tryptic Soy broth (rich media, unbuffered).
The test system of series [2] is Bacillus cereus CCUG 7414T. The format is cell-based. The source says:
(§1) The three bacterial strains—Escherichia coli ATCC 25922, Pseudomonas aeruginosa ATCC 27853, and Staphylococcus aureus ATCC 29213—as well as the fungal strain Candida albicans ATCC 90028 were provided by the Department of Clinical Bacteriology, Lund University Hospital. Bacillus subtilis CCUG 163B^T and Bacillus cereus CCUG 7414^T were obtained from the Department of Molecular Sciences, Swedish University of Agricultural Sciences.
(§2) The standard broth microdilution assay was utilized to assess the MIC of designed peptides according to the guidelines of the Clinical and Laboratory Standards Institute (CLSI). Briefly, bacteria were grown in unbuffered Mueller–Hinton Broth (MHB, VWR International, Leuven, Belgium) as well as buffered (containing 50 mM NaHCO3) medium to the mid-logarithmic phase and were quantified by OD600. The bacterial suspension was diluted in the same medium to reach a final density of 1 × 10^6 colony-forming unit per milliliter (CFU/mL). A volume of 50 µL of the bacterial suspension was added to 96-well plates containing 50 µL of MHB in the absence (viability control) or the presence of the peptides at different concentrations (0.625–80 µM). […] MIC values were derived from 3 sets of independent experiments with different bacterial cultures.

Series [3] concerns Bacillus subtilis CCUG 163BT. The format is cell-based.
Description: as §1, §2

Series [4] addresses T1, aureolysin from S. aureus (Staphylococcus aureus, UniProt P81177).
T1 construct: purchased
As to the kind of experiment: Stability in the presence of the protease aureolysin. It counts as in vitro ADME. As to conditions: peptide:enzyme 200:1, 37 °C, RP-HPLC-MS. The procedure:
Peptide stability was also assayed in commercially available Gram-positive, S. aureus protease, aureolysin. […] All the samples were then incubated at 37 °C at different incubation times. The reaction was quenched by acidifying with 5 µL of 0.1% formic acid. The samples were analyzed on MS coupled to RP-HPLC.

The test system of series [5] is human red blood cells (RBCs). As to the kind of experiment: Hemolysis assay. The format is cell-based. As to conditions: human RBCs 0.25% in PBS pH 7.4, 80 μM peptide (highest test concentration), 1 h, 37 °C, absorbance 405 nm, relative to 1% Triton X-100. As for the experimental part:
The hemolytic assay was conducted by preparing a stock solution of 320 μM peptides in MilliQ water and serially diluted in PBS to give 100 μL test solutions in a 96-well U-bottom microtiter plate (Nunc). Human-type RBCs (red blood cells) were collected from the donor, washed with PBS (pH 7.4) three times, and centrifuged at 1500× g for 60 s. A pellet of RBCs was resuspended to 0.25% (v/v) solution in PBS (pH 7.4). A 100 μL 0.25% suspension of washed RBCs in PBS was dispensed into each well containing serially diluted peptide solutions and incubated at 37 °C for 1 h. The 96-well plate was centrifuged at 150× g for 5 min and aliquots of 100 μL were transferred to a 96-well U-bottomed microtiter plate (Falcon) and the absorbance was measured at 405 nm with an automatic Multiskan Ascent plate reader (Labsystems). The amount of hemolysis was calculated as the percentage of maximum lysis (1% Triton X-100 control) after adjusting for minimum lysis (PBS control).

The conditions of series [6]: cited from earlier work. The procedure:
One of the major limitations of AMPs for clinical use is their inactivation by both endogenous human proteases and proteases secreted from invading microbes. From our previous studies, it was evident that KR-12 and truncated analogs degrade within 10 min in diluted human serum. More recently, we have shown that the KR-12 cyclic dimer peptides were stable for up to 6 h in diluted human serum but the recovery of LL-37 was very low during the precipitation step of the assay, either due to binding of LL-37 with serum components or rapid degradation. We also compared the stability pro ...

In series [7] the test system is Bacillus subtilis CCUG 163BT. The format is cell-based. As for the experimental part:
as §1
(§3) Antimicrobial activities of the peptides were evaluated using the two-step microdilution assay, which is designed for testing AMPs without activity-inhibiting components. Briefly, bacteria were grown to the mid-logarithmic phase at 37 °C in 3% (w/v) tryptic soy broth (TSB) (Merck KGaA, Darmstadt, Germany). The microbial culture was washed twice by centrifugation and resuspension in 10 mM Tris buffer (pH 7.4 at 37 °C, adjusted by HCl). The microbial suspension was quantified by OD600, diluted, and transferred to 96-well untreated polystyrene microplates prepared with 2-fold serial dilutions of the peptides using 50,000 bacteria per well (all dilutions in Tris buffer). These were incubated for 5 h at 37 °C, after which 5 µL of 20% (w/v) TSB was added to each well and the microplates were re-incubated for an additional 6–12 h (depending on the growth rate of each organism). All MICs presented are the medians from triplicate experiments performed independently.
This is another data set of the same source.

Series [8] has as its system Bacillus cereus CCUG 7414T. It counts as cell-based. As to conditions: B. cereus; TSB, Tryptic Soy broth (rich media, unbuffered).
Series [9] concerns Escherichia coli ATCC 25922. The format is cell-based. As to conditions: ATCC 25922, 24 h.
Description: as §1, §2

The subject of series [10] is Pseudomonas aeruginosa ATCC 27853. It counts as cell-based. As to conditions: ATCC 27853, 24 h.
Description: as §1, §2

The subject of series [11] is E. coli MG1655 wild type and cyclotides-resistant mutants. As to the kind of experiment: MIC against cyclotide-resistant strains in buffer conditions. More on the design: unit not given here. It counts as cell-based, Escherichia coli. The procedure:
(§4) The LL-37 resistant mutants (DA22427 and DA23307) used in this study were derived from Salmonella enterica serovar Typhimurium DA6192, wild-type and cyclotides-resistant mutants (DA54114 and DA57107) were derived from E. coli MG1655 (wild type) and were kindly provided by Department of Medical Biochemistry and Microbiology, Uppsala University.
(§5) MIC measurements were performed in 20 mM sodium phosphate buffer (PBS), supplemented with 0.1% TSB in 96-well plates (round bottom, Nunc A/S, Roskilde, Denmark) in a total volume of 100 µL. The overnight cultures were diluted 5 × 10^5 CFU/mL in the same medium and 90 µL was transferred into the plates containing 10 µL of 2-fold diluted peptides. […] At least two independent experiments were performed with two technical replicates. In cyclotides, resistant mutant average MIC was reported.

Series [12] has as its system Salmonella enterica serovar Typhimurium DA6192 wild type and LL-37-resistant mutants (waaY, phoP). Briefly: MIC against LL-37-resistant strains in buffer conditions. Also on record: unit not given here. It counts as cell-based. As to conditions: 20 mM sodium phosphate buffer with 0.1% TSB, 16 to 20 h, 37 °C. As for the experimental part:
as §4, §5

The subject of series [13] is Bacillus cereus CCUG 7414T. The format is cell-based. As to conditions: CCUG 7414, 5 h. As for the experimental part:
as §1, §3

Series [14] concerns aureolysin. Briefly: commercially available Gram-positive, S. aureus protease, aureolysin. As to conditions: 37 °C, up to 24 h.
[15] abbreviates: E. coli DA54114 cyclotide-resistant mutant, sodium phosphate buffer with 0.1% TSB, average MIC.
The mark [16] stands for this setting: E. coli DA57107 cyclotide-resistant mutant, sodium phosphate buffer with 0.1% TSB, average MIC.
Where [17] appears, read: E. coli WT (MG1655), 20 mM sodium phosphate buffer with 0.1% TSB, 16 to 20 h, 37 °C.
Where [18] appears, read: S. typhimurium phoP LL-37-resistant mutant.
Setting [19] is: S. typhimurium waaY LL-37-resistant mutant.

T1 sequence (P81177 209-509): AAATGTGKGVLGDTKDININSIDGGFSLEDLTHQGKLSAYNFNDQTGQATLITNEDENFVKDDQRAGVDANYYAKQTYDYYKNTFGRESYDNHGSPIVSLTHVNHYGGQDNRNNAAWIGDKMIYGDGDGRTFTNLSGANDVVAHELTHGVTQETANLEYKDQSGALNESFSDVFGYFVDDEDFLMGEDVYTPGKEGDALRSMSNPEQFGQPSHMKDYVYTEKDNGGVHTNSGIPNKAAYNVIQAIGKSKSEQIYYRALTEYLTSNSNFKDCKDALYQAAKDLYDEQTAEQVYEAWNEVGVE

Regarding `CC[C@H](C)[C@H](NC(=O)[C@H](CCCCN)NC(=O)[C@H](CCC(=O)O)NC(=O)[C@H](CCCCN)NC(=O)[C@H](CO)NC(=O)[C@H](CCCCN)NC(=O)[C@H](CCCNC(=N)N)NC(=O)[C@H](Cc1ccccc1)NC(=O)[C@H](Cc1ccccc1)NC(=O)[C@H](CC(=O)O)NC(=O)CNC(=O)[C@H](CC(C)C)NC(=O)[C@@H](N)CC(C)C)C(=O)NCC(=O)N[C@@H](CCCCN)C(=O)N[C@@H](CCC(=O)O)C(=O)N[C@@H](Cc1ccccc1)C(=O)N[C@@H](CCCCN)C(=O)N[C@@H](CCCNC(=N)N)C(=O)N[C@H](C(=O)N[C@H](C(=O)N[C@@H](CCC(N)=O)C(=O)N[C@@H](CCCNC(=N)N)C(=O)N[C@H](C(=O)N[C@@H](CCCCN)C(=O)N[C@@H](CC(=O)O)C(=O)N[C@@H](Cc1ccccc1)C(=O)N[C@@H](CC(C)C)C(=O)N[C@@H](CCCNC(=N)N)C(=O)N[C@@H](CC(N)=O)C(=O)N[C@@H](CC(C)C)C(=O)N[C@H](C(=O)N1CCC[C@H]1C(=O)N[C@@H](CCCNC(=N)N)C(=O)N[C@H](C(=O)N[C@@H](CCC(=O)O)C(=O)N[C@@H](CO)C(=O)O)[C@@H](C)O)C(C)C)[C@@H](C)CC)C(C)C)[C@@H](C)CC` [LL-37], the MIC in [1] is above 80 µM; in series [2] (B. cereus, MHB, Muller-Hinton broth (rich media, unbuffered)), above 80 µM; in series [3] (B. subtilis, MHB, Muller-Hinton broth (rich media, unbuffered)) it was above 80 µM; in series [7] (B. subtilis, Control: two-step microdilution assay in Tris buffer 10 mM without salts), 1.25 µM; in series [8], above 80 µM. In addition, in series [4], the “time to hydrolysis of the Leu31-Val32 peptide bond by aureolysin” value is at most 5 min. Moreover, the hemolysis in series [5] is 19–23%. Further, the “recovery during the precipitation step of the serum stability assay” value in series [6] (diluted human serum) was “very low”.
With KRIVKRIKAFLR [KR-12 (Q5K,D9A)], the MIC in [2] (CCUG 7414, 24 h) is above 80 µM; in [9] it was 10 µM; in series [10], 10 µM; in series [3] (CCUG 163, 24 h), above 80 µM; in [11] (setting [15]), 1; in series [11] (setting [16]), 1. Moreover, the MIC in series [11] (setting [17]) is 1; in series [12] (S. typhimurium WT (DA6192)), 10; in [12] (setting [18]), 10; in series [12] (setting [19]), 10; in [7] (CCUG 163, 5 h), 1.25 µM.
Turning to KRIVQRIKDFLR [KR-12], the MIC in series [2] (CCUG 7414, 24 h) is above 80 µM; in series [9], above 20 µM; in series [10], above 20 µM; in [3] (CCUG 163, 24 h), above 80 µM; in series [11] (setting [15]), 1; in series [11] (setting [16]) it was 1. Besides, the MIC in [11] (setting [17]) came to 1; in [12] (S. typhimurium WT (DA6192)), 20; in [12] (setting [18]) it was 20; in series [12] (setting [19]) it was 20; in [13] it was 2.5 µM; in series [7] (CCUG 163, 5 h), 5 µM. Moreover, the “time within which the peptide degrades in diluted human serum” value in series [6] was at most 10 min.
Turning to Kalata B7, in [4], the “time for which the peptide was stable in aureolysin (stable for up to)” value is given as at least 24 h.
With LLGDFFRKSKEKIGKEFKRIVQRIKDFLRNLVPRTES, the cleaved bond result in series [14] was “Leu31-Val32, first_seen, within the first 5 min”.
